Data published in patent publication US20240415878A1, “Compositions and Methods for Modulating Mitochondrial Function” (Board of Regents, The University of Texas System, priority 2021, published 2024).

Assays:
[1] = target: T1, Mrs2 (Mus musculus, UniProt Q5NCE8); assay: Mrs2 inhibition in intact hepatocytes loaded with Mag-Green-AM, confocal, L-lactate stimulation; assay type: cell-based, murine; conditions: 5 μM
T1 construct: endogenous in cells; host or cells: primary murine hepatocytes (C57BL/6J mice)
T1 sequence (Q5NCE8 54-434): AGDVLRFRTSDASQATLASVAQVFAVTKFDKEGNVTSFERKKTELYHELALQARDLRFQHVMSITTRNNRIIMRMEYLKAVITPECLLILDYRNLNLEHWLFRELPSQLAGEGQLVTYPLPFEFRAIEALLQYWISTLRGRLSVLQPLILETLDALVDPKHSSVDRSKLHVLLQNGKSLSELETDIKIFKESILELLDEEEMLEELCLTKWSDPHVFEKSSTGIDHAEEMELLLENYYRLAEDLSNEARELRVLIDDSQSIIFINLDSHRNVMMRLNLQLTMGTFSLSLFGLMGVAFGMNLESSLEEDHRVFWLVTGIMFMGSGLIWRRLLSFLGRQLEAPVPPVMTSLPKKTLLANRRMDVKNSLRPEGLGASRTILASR
Description: Bacterial CorA forms a pentameric complex that selectively drives Mg2+ uptake in an electrogenic manner. […] Mrs2 is the eukaryotic homologue of CorA and contains two transmembrane domains with a well-conserved F/Y-G-M-N motif; therefore, CorA blockers were tested to determine if they alter Mrs2-mediated mMg^2+ uptake (Moomaw and Maguire, 2008). Digitonin permeabilized hepatocytes were utilized to measure the inhibitory effect and determine its IC50. Permeabilized cells were treated with CPACC followed by a 1 mM bolus of MgCl2 (FIG. 10B). A 1 mM Mg^2+ bolus was added after baseline recording, and the extramitochondrial Mg^2+ clearance was used as a read-out for Mrs2-mediated mMg^2+ uptake using Mag-Green as a Mg^2+ indicator. […] We next investigated Mrs2 inhibition in intact hepatocytes loaded with Mag-Green-AM. […] Next CPACC was examined to determine if it had any effect on MCU-mediated mCa^2+ uptake in permeabilized cells. […] The availability of the compound to intact cells was measured using graphite furnace atomic absorption spectroscopy (GFAAS) and bicinchoninic acid in parallel. […] Encouraged by the potent inhibitory effect of CPACC and cellular permeability, we next measured the cytotoxicity of CPACC in cells. […]
Evaluation of dose dependent Mrs2 inhibition by confocal live cell imaging system. […] Data was quantified using Leica Application Suite X.

[2] = tested on: hepatocytes; assay: Cellular uptake assay (GFAAS, Co normalised to protein); assay type: in vitro ADME, murine; conditions: intact hepatocytes
Description: Cellular uptake assay. Hepatocytes were treated with varying doses of CPACC for 30 minutes, cells were washed in Ca^2+ and Mg^2+ free DPBS, and cell pellets flash-frozen. Pellets were suspended in ice cold lysis buffer (0.1% Triton X-100 and 0.2% HNO3 in ultrapure water). The suspension was vortexed for 30 s and incubated on ice for 45 min. The cell lysate was centrifuged, and the supernatant was transferred to a clean tube prior to analysis. The Co^3+ content of the lysate was determined using graphite furnace atomic absorption spectroscopy (GFAAS) and was normalized to the protein content of the sample, which was determined using the bicinchoninic acid (BCA) assay kit following manufacturer instructions (ThermoFisher). Results are reported as the average mass ratio of Co to protein (pg/μg) in each sample±SEM.

[3] = HFD-fed WT mice treated with CPACC i.p.; assay type: in vivo
Description: CPACC treatment enhances adipose browning and lowers whole body weight. Given the potent mMg^2+ uptake inhibiting properties and low toxicity of CPACC, we hypothesized that CPACC could mimic Mrs2^−/− cellular phenotype. WT hepatocytes isolated from over 12 months old mice were treated with 50 μM CPACC for 48 hours. Control and CPACC treated hepatocytes were stained with BODIPY and TMRE for intracellular tracing using confocal imaging. […] Next it was determined if CPACC treatment affects the mitochondrial oxygen consumption rate. Freshly isolated WT hepatocytes were treated with 5-25 μM concentrations of CPACC for 16 hours before measurement of oxygen consumption rate. […] Since it was observed an enhancement of basal OCR in CPACC treated hepatocytes, the extracellular acidification rate was measured in control and CPACC treated hepatocytes and found it to be higher in the CPACC condition indicating higher glycolytic activity (FIG. 11G). Having observed that pharmacologic blockade of Mrs2 by CPACC reduced lipid droplet size and enhanced mitochondrial function, it was asked whether in vivo administration of CPACC lowers body weight gain. 12 weeks HFD-fed WT mice were treated with CPACC (20 mg/kg) via intraperitoneal injection every three days over 6 weeks. […] Because it was observed browning/beiging in Mrs2^−/− iWAT, UCP1 expression by RT-qPCR was tested, confirming induction in the iWAT of CPACC treated mice.
Animal models. Wild-type (WT) and Mrs2^−/− (KO) C57BL/6J mice were housed and maintained in our animal breeding facility with prior approval and accordance with the Institutional Animal Care and Use Committee (IACUC). Mice were fed a Western Diet (WD; Research Diets D09100310), a standard Chow Diet (CD; Envigo 7012), or a High Fat Diet (HFD; Research Diets D12492). For most experiments, WT and KO mice were maintained on the WD or the CD starting at 12 weeks of age. With termination at 12 months. WT mice maintained on a HFD starting at 6 weeks were administered control (saline) or CPACC (20 mg/kg BW in saline) I.P. every 3 days starting after 6 weeks of maintained diet. Body weight, health, and food were measured regularly for all groups. […]
Plasma alanine transaminase activity and citrate measurements. Liver function and damage was determined by measuring alanine transaminase (ALT). The ALT activity in the plasma was determined using the Alanine Transaminase Activity Assay Kit (Abcam ab105134) following manufacturer's protocol. The plasma ALT levels over two different time points were obtained and corresponding ALT activity was determined by reading in a plate reader at 570 nm. […] Citrate levels were determined using the Citrate Assay Kit (Abcam ab83396) by reading in a plate reader at 570 nm following the manufacturer's protocol. […]

[NH2][Co]([NH2])([NH2])([NH2])([NH2])[Cl] [CPACC, chloropentaammine cobalt (III) chloride]
Mitochondrial Mg^2+ uptake following L-lactate stimulation [1]: significantly inhibited
cellular accumulation of the compound (intracellular Co) [2]: accumulates in the cell in a dose-dependent manner
RT-qPCR analysis of WAT tissue (HIF-1α pathway) ([3]; HFD mice, 20 mg/kg i.p.): transcriptional signature of HIF-1α activation
UCP1 expression in iWAT by RT-qPCR ([3]; HFD-fed WT mice, 20 mg/kg i.p.): induction
body weight gain ([3]; HFD-fed WT mice, 20 mg/kg i.p. every three days over 6 weeks): restricted body weight gain
Plasma ALT levels ([3]; HFD-fed WT mice, 20 mg/kg i.p., versus control group): lower
